For twelve molecules, inhibition and Ki results are on record in ChEMBL document CHEMBL4118119, “Development of novel pyridazinone-based adenosine receptor ligands” (Bioorg Med Chem Lett, 2018).

Assay [1] addresses T1, Adenosine receptor A2b (Homo sapiens) (UniProt P29275).
T1 sequence (whole entry): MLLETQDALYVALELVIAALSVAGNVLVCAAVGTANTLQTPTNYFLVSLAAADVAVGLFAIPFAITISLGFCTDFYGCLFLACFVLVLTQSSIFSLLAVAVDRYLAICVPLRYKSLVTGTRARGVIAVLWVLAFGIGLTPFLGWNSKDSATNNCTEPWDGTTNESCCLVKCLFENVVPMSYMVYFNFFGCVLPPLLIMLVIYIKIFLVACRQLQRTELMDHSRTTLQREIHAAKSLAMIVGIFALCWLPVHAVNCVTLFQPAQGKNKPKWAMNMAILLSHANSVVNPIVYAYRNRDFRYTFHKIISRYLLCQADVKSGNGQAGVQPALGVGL
In words: Antagonist activity at recombinant human A2B receptor expressed in CHO cells assessed as inhibition of NECA-stimulated cAMP production at 0.001 to 1 uM by Alpha screen assay relative to control. It counts as functional, cell-based. A general note: Cyclic AMP is a second messenger, typically raised through Gs and lowered through Gi signalling.

Assay [2] deals with T2, Adenosine receptor A1 (Homo sapiens) (UniProt P30542).
T2 sequence (whole entry): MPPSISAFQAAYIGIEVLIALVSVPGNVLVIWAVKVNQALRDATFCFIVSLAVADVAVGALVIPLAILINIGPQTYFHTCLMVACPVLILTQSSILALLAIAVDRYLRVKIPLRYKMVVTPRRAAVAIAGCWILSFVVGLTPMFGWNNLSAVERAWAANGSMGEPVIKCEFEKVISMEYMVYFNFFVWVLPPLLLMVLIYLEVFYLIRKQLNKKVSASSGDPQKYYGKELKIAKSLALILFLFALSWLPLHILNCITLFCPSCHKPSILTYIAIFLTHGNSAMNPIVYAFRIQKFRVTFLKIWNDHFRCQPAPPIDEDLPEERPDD
In words: Displacement of [3H]DPCPX from recombinant human A1 receptor expressed in CHO cell membranes at 1 uM measured after 90 mins by scintillation counting method relative to control. A general note: Loss of bound radioactivity is the signal in a displacement assay; it reports binding, not function.

Assay [3] concerns the target T3, Adenosine receptor A2a (Homo sapiens, UniProt P29274). Briefly: Displacement of [3H]-ZM241385 from recombinant human A2A receptor expressed in CHO cell membranes measured after 60 mins by scintillation counting method.
In assay [4] the target is T4, Adenosine receptor A3 (Homo sapiens) (UniProt P0DMS8).
T4 sequence (whole entry): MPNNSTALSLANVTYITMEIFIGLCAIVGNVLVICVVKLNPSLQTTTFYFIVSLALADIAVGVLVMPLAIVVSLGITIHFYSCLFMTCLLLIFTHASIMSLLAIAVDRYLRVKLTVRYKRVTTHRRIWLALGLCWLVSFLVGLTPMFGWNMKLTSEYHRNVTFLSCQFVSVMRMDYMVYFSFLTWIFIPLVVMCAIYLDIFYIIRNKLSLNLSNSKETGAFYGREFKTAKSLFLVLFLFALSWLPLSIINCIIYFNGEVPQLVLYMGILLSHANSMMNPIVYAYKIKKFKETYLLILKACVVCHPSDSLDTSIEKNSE
In words: Displacement of [125I]-ABMECA from recombinant human A3 receptor expressed in CHO cell membranes at 1 uM measured after 120 mins by scintillation counting method relative to control.

The target of another assay is T5, Adenosine receptor A1 (Homo sapiens, UniProt P30542).
T5 sequence (P30542 whole entry): T2 sequence (whole entry)
Briefly: Displacement of [3H]DPCPX from recombinant human A1 receptor expressed in CHO cell membranes measured after 90 mins by scintillation counting method.

For a further assay, the target named is T6, Adenosine receptor A3 (Homo sapiens, UniProt P0DMS8).
T6 sequence (P0DMS8 whole entry): T4 sequence (whole entry)
In words: Displacement of [125I]-ABMECA from recombinant human A3 receptor expressed in CHO cell membranes measured after 120 mins by scintillation counting method.

Assay [5] has as its target T3, Adenosine receptor A2a. Briefly: Displacement of [3H]-ZM241385 from recombinant human A2A receptor expressed in CHO cell membranes at 1 uM measured after 60 mins by scintillation counting method relative to control.

T3 sequence (P29274 whole entry): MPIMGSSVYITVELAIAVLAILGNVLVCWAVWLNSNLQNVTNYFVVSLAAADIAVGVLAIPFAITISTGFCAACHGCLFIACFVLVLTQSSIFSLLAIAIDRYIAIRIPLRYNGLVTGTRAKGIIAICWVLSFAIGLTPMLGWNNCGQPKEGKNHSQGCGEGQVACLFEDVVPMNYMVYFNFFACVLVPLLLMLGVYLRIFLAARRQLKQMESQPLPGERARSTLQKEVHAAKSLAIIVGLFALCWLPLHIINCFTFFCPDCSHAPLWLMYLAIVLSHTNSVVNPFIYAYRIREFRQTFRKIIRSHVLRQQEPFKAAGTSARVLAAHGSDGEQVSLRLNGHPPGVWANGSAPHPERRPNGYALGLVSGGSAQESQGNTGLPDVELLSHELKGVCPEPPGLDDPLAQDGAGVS

What is called inhibition is the change of the read-out against control, counted positive when it falls. The term Ki denotes the equilibrium dissociation constant of an inhibitor or competing ligand from its target. For the molecule `CCc1nn(CC)c(=O)c2cc(-c3ccccc3)sc12`, the inhibition in assay [1] is 1%; in assay [2] it was 4%; in assay [4] it was 10%. For the same molecule, the Ki on Adenosine receptor A2a [3] came out at 3.14 µM.

With `CCn1nc(-c2ccccn2)c2sccc2c1=O`, the inhibition in assay [1] and in assay [4] was 1% in each case. For the same molecule, the Ki at Adenosine receptor A2a [3] came out at 2.87 µM; at Adenosine receptor A1, 0.782 µM.

`CCn1nc(-c2nccs2)c2sccc2c1=O`: the inhibition in assay [1] is 1%. In addition, the results for the Ki on Adenosine receptor A3, at Adenosine receptor A2a [3] and on Adenosine receptor A1 were 2.93 µM, 2.49 µM and 0.113 µM, respectively.

Regarding `Nn1nc(-c2ccccn2)c2sccc2c1=O`, the inhibition (in assay [1]; in assay [4]; on Adenosine receptor A2a [5]) was 1% throughout. The Ki at Adenosine receptor A1 was 3.72 µM.

`O=c1[nH]nc(-c2nccs2)c2sccc12`: the inhibition in assay [1] and in assay [4] was 1% throughout. Further, the results for the Ki at Adenosine receptor A2a [3] and at Adenosine receptor A1 were 3.39 µM and 1.15 µM, respectively.

As to `Nn1nc(-c2ccccc2)c2sccc2c1=O`, the inhibition was 1% in assay [1], 16% in assay [2], 1% in assay [4] and 12% at Adenosine receptor A2a [5].

`CC(C)n1nc(-c2ccccn2)c2sccc2c1=O`: the inhibition turned out to be 1% in assay [1], 2% in assay [4] and 2% on Adenosine receptor A2a [5]. The Ki at Adenosine receptor A1 turned out to be 0.912 µM.

Take `CCn1nc(-c2ccccc2)c2sccc2c1=O`: the inhibition in assay [1] came to 1%; on Adenosine receptor A2a [5], 17%. Moreover, the Ki was found to be 2.59 µM on Adenosine receptor A3 and 2.67 µM at Adenosine receptor A1.

`Nn1nc(-c2nccs2)c2sccc2c1=O`: the values for the inhibition (in assay [1]; in assay [4]; on Adenosine receptor A2a [5]) were 1%, 5% and 15%, respectively. For the same molecule, on Adenosine receptor A1, the Ki is 2.87 µM.

In the case of `CCc1nn(CC)c(=O)c2ccsc12`, the inhibition in assay [1] worked out at 1%; in assay [2], 3%; in assay [4], 14%; at Adenosine receptor A2a [5] it was 7%.

Consider `Nn1nc(-c2cccs2)c2sccc2c1=O`, for which the inhibition (in assay [1]; in assay [4]; on Adenosine receptor A2a [5]) was 1% in each case. Also, the Ki at Adenosine receptor A1 was found to be 3.54 µM.

Turning to `CCn1nc(-c2cccs2)c2sccc2c1=O`, the inhibition (in assay [1]; in assay [4]; at Adenosine receptor A2a [5]) was 1% each time. Also, the Ki at Adenosine receptor A1 amounted to 0.724 µM.
